Experimental data: ChEMBL document CHEMBL3885881, “DrugMatrix”

Species: Rattus norvegicus
Test: DrugMatrix - Regimen: Daily Repeat
Format: toxicity, organism-based, Sprague-Dawley
Design: regimen Daily Repeat, gender Male, age 6-8 weeks
Details: in vivo, po, route oral GAVAGE, vehicle 100 % WATER; for NUCLEATED RED BLOOD CELLS / PLATELET COUNT / ABSOLUTE BASOPHIL / ABSOLUTE EOSINOPHIL / ABSOLUTE LYMPHOCYTE / ABSOLUTE MONOCYTE / ABSOLUTE SEGMENTED NEUTROPHIL / BASOPHIL / EOSINOPHIL / ERYTHROCYTE COUNT / HEMATOCRIT / LEUKOCYTE COUNT / LYMPHOCYTE / MEAN CORPUSCULAR HEMOGLOBIN / MEAN CORPUSCULAR HEMOGLOBIN CONCENTRATION / MEAN CORPUSCULAR VOLUME / MONOCYTE / NEUTROPHIL: tissue Blood; for ALANINE AMINOTRANSFERASE / ALBUMIN / ALKALINE PHOSPHATASE / ASPARTATE AMINOTRANSFERASE / BLOOD UREA NITROGEN / CARBON DIOXIDE / CHLORIDE / CHOLESTEROL / CREATINE PHOSPHOKINASE / CREATININE / LIPASE / POTASSIUM / TOTAL BILIRUBIN / TOTAL PROTEIN: tissue Plasma
[1] = 44 mg/kg, 120 h, dose level Low, time 5 day
[2] = 600 mg/kg, 72 h, dose level M1, time 3 day
[3] = 600 mg/kg, 120 h, dose level M1, time 5 day
[4] = 1200 mg/kg, 72 h, dose level High, time 3 day

With NC(=O)c1ncn([C@@H]2O[C@H](CO)[C@@H](O)[C@H]2O)n1 [RIBAVIRIN] the “NUCLEATED RED BLOOD CELLS” value [1] was 0 /100WBC, the “PLATELET COUNT” value [1] was 1248.67 x10E3/uL and the “ALANINE AMINOTRANSFERASE” value [1] was 43 u/L. The ALBUMIN [1] was 4.37 G/DL, the “ALKALINE PHOSPHATASE” value [1] was 347 u/L and the “ASPARTATE AMINOTRANSFERASE” value [1] was 75.33 u/L. For the same molecule, the “BLOOD UREA NITROGEN” value [1] was 13.67 mg/dL, the “CARBON DIOXIDE” value [1] was 26 mmol/L and the CHLORIDE [1] was 102 MEQ/L. The CHOLESTEROL [1] was 63 mg/dL, the “CREATINE PHOSPHOKINASE” value [1] was 230.67 u/L and the CREATININE [1] was 0.16 mg/dL. The LIPASE [1] was 8 u/L, the POTASSIUM [1] was 6.69 MEQ/L and the “TOTAL BILIRUBIN” value [1] was 0.2 mg/dL. The “TOTAL PROTEIN” value [1] was 6 G/DL, the “ABSOLUTE BASOPHIL” value [2] was 0 CELLS/uL and the “ABSOLUTE EOSINOPHIL” value [2] was 216 CELLS/uL. For the same molecule, the “ABSOLUTE LYMPHOCYTE” value [2] was 9535 CELLS/uL, the “ABSOLUTE MONOCYTE” value [2] was 0 CELLS/uL and the “ABSOLUTE SEGMENTED NEUTROPHIL” value [2] was 1715.67 CELLS/uL. For the same molecule, the BASOPHIL [2] was 0%, the EOSINOPHIL [2] was 2% and the “ERYTHROCYTE COUNT” value [2] was 6.28 x10E6/uL. For the same molecule, the HEMATOCRIT [2] was 39.7%, the “LEUKOCYTE COUNT” value [2] was 11.47 x10E3/uL and the LYMPHOCYTE [2] was 82.67%. The “MEAN CORPUSCULAR HEMOGLOBIN” value [2] was 23.53 pg, the “MEAN CORPUSCULAR HEMOGLOBIN CONCENTRATION” value [2] was 37.3 G/DL and the “MEAN CORPUSCULAR VOLUME” value [2] was 63.2 fL. The MONOCYTE [2] was 0%, the NEUTROPHIL [2] was 15.33% and the “NUCLEATED RED BLOOD CELLS” value [2] was 0 /100WBC. The “PLATELET COUNT” value [2] was 1269.33 x10E3/uL, the “ALANINE AMINOTRANSFERASE” value [2] was 185 u/L and the ALBUMIN [2] was 3.7 G/DL. The “ALKALINE PHOSPHATASE” value [2] was 293.33 u/L, the “ASPARTATE AMINOTRANSFERASE” value [2] was 480 u/L and the “BLOOD UREA NITROGEN” value [2] was 16.33 mg/dL. For the same molecule, the “CARBON DIOXIDE” value [2] was 16 mmol/L, the CHLORIDE [2] was 104.33 MEQ/L and the CHOLESTEROL [2] was 83 mg/dL. The “CREATINE PHOSPHOKINASE” value [2] was 1211.67 u/L, the CREATININE [2] was 0.22 mg/dL and the LIPASE [2] was 35 u/L. The POTASSIUM [2] was 7.1 MEQ/L, the “TOTAL BILIRUBIN” value [2] was 0.2 mg/dL and the “TOTAL PROTEIN” value [2] was 5.33 G/DL. The “ABSOLUTE BASOPHIL” value [3] was 0 CELLS/uL, the “ABSOLUTE EOSINOPHIL” value [3] was 179.33 CELLS/uL and the “ABSOLUTE LYMPHOCYTE” value [3] was 10736 CELLS/uL. The “ABSOLUTE MONOCYTE” value [3] was 0 CELLS/uL, the “ABSOLUTE SEGMENTED NEUTROPHIL” value [3] was 2451.33 CELLS/uL and the BASOPHIL [3] was 0%. For the same molecule, the EOSINOPHIL [3] was 1.33%, the “ERYTHROCYTE COUNT” value [3] was 6.48 x10E6/uL and the HEMATOCRIT [3] was 40.57%. The “LEUKOCYTE COUNT” value [3] was 13.37 x10E3/uL, the LYMPHOCYTE [3] was 81.33% and the “MEAN CORPUSCULAR HEMOGLOBIN” value [3] was 23.67 pg. The “MEAN CORPUSCULAR HEMOGLOBIN CONCENTRATION” value [3] was 37.87 G/DL, the “MEAN CORPUSCULAR VOLUME” value [3] was 62.53 fL and the MONOCYTE [3] was 0%. The NEUTROPHIL [3] was 17.33%, the “NUCLEATED RED BLOOD CELLS” value [3] was 0.33 /100WBC and the “PLATELET COUNT” value [3] was 1066.33 x10E3/uL. For the same molecule, the “ALANINE AMINOTRANSFERASE” value [3] was 34 u/L, the ALBUMIN [3] was 3.63 G/DL and the “ALKALINE PHOSPHATASE” value [3] was 197 u/L. The “ASPARTATE AMINOTRANSFERASE” value [3] was 117.33 u/L, the “BLOOD UREA NITROGEN” value [3] was 15 mg/dL and the “CARBON DIOXIDE” value [3] was 16 mmol/L. For the same molecule, the CHLORIDE [3] was 107.67 MEQ/L, the CHOLESTEROL [3] was 65.67 mg/dL and the “CREATINE PHOSPHOKINASE” value [3] was 1121 u/L. The CREATININE [3] was 0.19 mg/dL, the LIPASE [3] was 14.33 u/L and the POTASSIUM [3] was 7.12 MEQ/L. The “TOTAL BILIRUBIN” value [3] was 0.13 mg/dL, the “TOTAL PROTEIN” value [3] was 5.2 G/DL and the “ABSOLUTE BASOPHIL” value [4] was 0 CELLS/uL. The “ABSOLUTE EOSINOPHIL” value [4] was 0 CELLS/uL, the “ABSOLUTE LYMPHOCYTE” value [4] was 6405 CELLS/uL and the “ABSOLUTE MONOCYTE” value [4] was 112.67 CELLS/uL. For the same molecule, the BASOPHIL [4] was 0%, the EOSINOPHIL [4] was 0% and the “ERYTHROCYTE COUNT” value [4] was 6.37 x10E6/uL. The HEMATOCRIT [4] was 39.37%, the “LEUKOCYTE COUNT” value [4] was 8 x10E3/uL and the LYMPHOCYTE [4] was 80%. For the same molecule, the “MEAN CORPUSCULAR HEMOGLOBIN” value [4] was 24.77 pg, the “MEAN CORPUSCULAR HEMOGLOBIN CONCENTRATION” value [4] was 40.07 G/DL and the “MEAN CORPUSCULAR VOLUME” value [4] was 61.7 fL. The MONOCYTE [4] was 1.33%, the NEUTROPHIL [4] was 18.67% and the “NUCLEATED RED BLOOD CELLS” value [4] was 0 /100WBC. For the same molecule, the “PLATELET COUNT” value [4] was 1071 x10E3/uL, the “ALANINE AMINOTRANSFERASE” value [4] was 55.67 u/L and the ALBUMIN [4] was 3.17 G/DL. For the same molecule, the “ALKALINE PHOSPHATASE” value [4] was 195.67 u/L, the “ASPARTATE AMINOTRANSFERASE” value [4] was 225.67 u/L and the “BLOOD UREA NITROGEN” value [4] was 13.33 mg/dL. The “CARBON DIOXIDE” value [4] was 20 mmol/L, the CHLORIDE [4] was 113.33 MEQ/L and the CHOLESTEROL [4] was 88 mg/dL. The “CREATINE PHOSPHOKINASE” value [4] was 1322.67 u/L, the CREATININE [4] was 0.12 mg/dL and the LIPASE [4] was 7.67 u/L. For the same molecule, the POTASSIUM [4] was 7 MEQ/L, the “TOTAL BILIRUBIN” value [4] was 0.2 mg/dL and the “TOTAL PROTEIN” value [4] was 4.47 G/DL.
